System: 653999-131-R-J2-PDC complex spheroid viability
Experiment: Anticancer human tumor 653999-131-R-J2-PDC patient-derived lung adenocarcinoma cell line growth inhibition
Settings: for IC50: curve of first compound; for viability, T/C: stronger effect = lower value
Procedure, shortened: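 Drug combinations with the LSD1 inhibitor iadademstat tested on tumor cells co-cultured as spheroids with endothelial cells and mesenchymal stem cells. Concentrations descended in half-log increments from clinical Cmax or 10 microM.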
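Note: spheroids exposed to agents for seven days before readout.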

## CC[C@@]1(O)C(=O)OCc2c1cc1n(c2=O)Cc2cc3c(CN(C)C)c(O)ccc3nc2-1 + NC1CCC(NC2CC2c2ccccc2)CC1
Second compound 0.1 µM
  IC50: 4.65 nM
Second compound 0.316 µM
  IC50: 5.23 nM
Second compound 1 µM
  IC50: 4.8 nM
Second compound 3.16 µM
  IC50: 5.51 nM
Second compound 10 µM
  IC50: 6.87 nM
Second compound 0.1 µM, first compound 0.000316 µM
  viability, T/C: 89.3%
Second compound 0.1 µM, first compound 0.001 µM
  viability, T/C: 85.3%
Second compound 0.1 µM, first compound 0.00316 µM
  viability, T/C: 50.7%
Second compound 0.1 µM, first compound 0.01 µM
  viability, T/C: 40.2%
Second compound 0.1 µM, first compound 0.0316 µM
  viability, T/C: 27.5%
Second compound 0.1 µM, first compound 0.1 µM
  viability, T/C: 19.8%
Second compound 0.316 µM, first compound 0.000316 µM
  viability, T/C: 87%
Second compound 0.316 µM, first compound 0.001 µM
  viability, T/C: 80.4%
Second compound 0.316 µM, first compound 0.00316 µM
  viability, T/C: 57.9%
Second compound 0.316 µM, first compound 0.01 µM
  viability, T/C: 37.9%
Second compound 0.316 µM, first compound 0.0316 µM
  viability, T/C: 26.2%
Second compound 0.316 µM, first compound 0.1 µM
  viability, T/C: 18%
Second compound 1 µM, first compound 0.000316 µM
  viability, T/C: 94.7%
Second compound 1 µM, first compound 0.001 µM
  viability, T/C: 73.2%
Second compound 1 µM, first compound 0.00316 µM
  viability, T/C: 61.6%
Second compound 1 µM, first compound 0.01 µM
  viability, T/C: 35.9%
Second compound 1 µM, first compound 0.0316 µM
  viability, T/C: 25.1%
Second compound 1 µM, first compound 0.1 µM
  viability, T/C: 21.6%
Second compound 3.16 µM, first compound 0.000316 µM
  viability, T/C: 78.7%
Second compound 3.16 µM, first compound 0.001 µM
  viability, T/C: 75.3%
Second compound 3.16 µM, first compound 0.00316 µM
  viability, T/C: 52.7%
Second compound 3.16 µM, first compound 0.01 µM
  viability, T/C: 44.1%
Second compound 3.16 µM, first compound 0.0316 µM
  viability, T/C: 29.9%
Second compound 3.16 µM, first compound 0.1 µM
  viability, T/C: 20.7%
Second compound 10 µM, first compound 0.000316 µM
  viability, T/C: 91.9%
Second compound 10 µM, first compound 0.001 µM
  viability, T/C: 77.9%
Second compound 10 µM, first compound 0.00316 µM
  viability, T/C: 63.9%
Second compound 10 µM, first compound 0.01 µM
  viability, T/C: 44.3%
Second compound 10 µM, first compound 0.0316 µM
  viability, T/C: 27.1%
Second compound 10 µM, first compound 0.1 µM
  viability, T/C: 19.7%

Reference: PubChem BioAssay AID1918939 (Molecular Pharmacology Branch, DTP, NCI, 2023)
